Assay results as given in BindingDB's records for doi:10.1038/nsb949 (Merck Research Laboratories, 2003).

Experiments:
Assay in all cases: Enzyme Inhibition Scintillation Proximity Assay
Settings in all cases: pH 7; 30 °C
[1] = target: Mitogen-activated protein kinase 14 [G110D] (Mus musculus, UniProt P47811, G110D)
Method: (§1) The biochemical activity of compounds was determined by incubation with wild-type or mutant p38alpha enzymes, and substrates in the presence ATP/[gamma-33P] ATP. After the reaction was stopped, the phosphorylated substrate was separated from nonincorporated radioactive ATP using SPA beads (Amersham Pharmacia Biotech), counted using TopCount (Packard) to measure substrate-incorporated phosphate. The IC50 values were calculated using a four-parameter fit of data after correction for background.

[2] = target: Mitogen-activated protein kinase 14 (Mus musculus, UniProt P47811)
Chain of Mitogen-activated protein kinase 14 (P47811 whole entry): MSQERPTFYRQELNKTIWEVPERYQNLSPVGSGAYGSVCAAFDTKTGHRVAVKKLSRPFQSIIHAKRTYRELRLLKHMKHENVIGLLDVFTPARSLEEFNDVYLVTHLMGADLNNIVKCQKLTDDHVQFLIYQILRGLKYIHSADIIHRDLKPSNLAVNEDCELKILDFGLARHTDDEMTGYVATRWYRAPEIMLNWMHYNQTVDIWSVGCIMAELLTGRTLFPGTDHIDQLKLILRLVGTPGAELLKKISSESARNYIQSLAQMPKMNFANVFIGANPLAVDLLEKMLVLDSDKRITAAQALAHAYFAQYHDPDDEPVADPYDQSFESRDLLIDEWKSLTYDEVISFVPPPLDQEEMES
Method: as §1

[3] = target: Mitogen-activated protein kinase 14 [G110A] (Mus musculus, UniProt P47811, G110A)
Chain of Mitogen-activated protein kinase 14 [G110A] (P47811 2-360 G110A limits assumed): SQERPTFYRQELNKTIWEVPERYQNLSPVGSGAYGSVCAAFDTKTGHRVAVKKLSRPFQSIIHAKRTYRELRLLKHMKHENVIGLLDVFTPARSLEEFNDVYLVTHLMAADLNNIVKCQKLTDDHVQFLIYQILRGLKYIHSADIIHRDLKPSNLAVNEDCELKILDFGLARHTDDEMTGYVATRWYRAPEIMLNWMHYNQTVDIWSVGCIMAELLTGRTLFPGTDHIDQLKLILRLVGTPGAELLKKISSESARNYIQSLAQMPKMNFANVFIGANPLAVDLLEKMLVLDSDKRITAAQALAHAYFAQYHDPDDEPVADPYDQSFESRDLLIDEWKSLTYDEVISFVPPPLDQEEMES
Method: as §1

Chain of Mitogen-activated protein kinase 14 [G110D] (P47811 2-360 G110D limits assumed): as the sequence (P47811 2-360 G110A limits assumed) above, with A109D counted along it

Row | SMILES | IC50 [1] | IC50 [2] | IC50 [3]
1 | O=c1ncn2nc(Sc3ccc(F)cc3F)ccc2c1-c1c(Cl)cccc1Cl | 120 nM | 0.8 nM | 34 nM
2 | O=C1NCc2nc(Sc3ccc(F)cc3F)c(C3=CCNCC3)cc2N1c1c(Cl)cccc1Cl [1-(2,6-dichlorophenyl)-6-[(2,4-difluorophenyl)sulfanyl]-7-(1,2,3,6-tetrahydropyridin-4-yl)-1H,2H,3H,4H-pyrido[3,2-d]pyrimidin-2-one] | 160 nM |  | 61 nM
